Measurements reported in the RepoRT retention time repository.
Where a name gives a salt, the structure may show the parent alone.

Assay: HILIC, Merck SeQuant ZIC-HILIC, 25 °C, 0.25 mL/min; A: water + 16 mM ammonium formate; B: acetonitrile + 0.1% formic acid, pH 3; gradient (min/%B) 0/97 2/97 10/70 15/10 17/10 18/97 25/97
Details: stereoisomer not certain

For `CC(C)(COP(=O)(O)OP(=O)(O)OCC1OC(n2cnc3c(N)ncnc32)C(O)C1OP(=O)(O)O)C(O)C(=O)NCCC(=O)NCCS` (stereo not drawn) [COENZYME A], the LC retention time was 14.3 min.
`Cn1c(=O)[nH]c2nc[nH]c2c1=O` [1-Methylxanthine] gave an LC retention time of 2.14 min.
In the case of `CC(N)(Cc1cnc[nH]1)C(=O)O` (racemic) [Alpha-methyl-DL-histidine dihydrochloride], the LC retention time is reported as 15.5 min.
For `Nc1ncnc2c1ncn2C1CC(O)C(COP(=O)(O)OP(=O)(O)OP(=O)(O)O)O1` (stereo not drawn) [DEOXYADENOSINE TRIPHOSPHATE], the LC retention time was 15.7 min.
`O=C(O)c1cc(=O)c2ccccc2[nH]1` [Kynurenic acid] gave an LC retention time of 9.58 min.
Work on `NC(Cc1ccc(O)c(O)c1)C(=O)O` [3-4-DIHYDROXY-L-PHENYLALANINE] yielded an LC retention time of 13.4 min.
For `Nc1ncnc2c1ncn2C1OC(CO)C(O)C1O` (stereo not drawn) [ADENOSINE], the LC retention time was 8.64 min.
Molecule `CCCCC(N)C(=O)O` (stereo not drawn) [NORLEUCINE] has an LC retention time of 11.2 min.
For `C[n+]1cccc(C(=O)[O-])c1` [TRIGONELLINE], the LC retention time was 13 min.
Molecule `C=C(C)C1CC=C(C)C(=O)C1` [(R)-(-)-Carvone] has an LC retention time of 1.55 min.
For `O=C(O)c1ccccc1O` [SALICYLATE], the LC retention time was 1.81 min.
For `CC(C)=CCNc1ncnc2nc[nH]c12` [N6-(DELTA2-ISOPENTENYL)-ADENINE], the LC retention time was 2.13 min.
For `Cn1cncc1CCN` [3-METHYLHISTAMINE], the LC retention time was 17.2 min.
With `CCCCCCCCCCCCCCCCCC(=O)OCC(O)COP(=O)([O-])OCC[N+](C)(C)C` (stereo not drawn) [18-0_LysoPC] the LC retention time was 11.2 min.
With `O=c1[nH]cnc2nc[nH]c12` [HYPOXANTHINE] the LC retention time was 8.77 min.
`Cc1ncc(CO)c(C(=O)O)c1O` [4-PYRIDOXATE] gave an LC retention time of 2.22 min.
Molecule `NC(=O)NCCCC(N)C(=O)O` (stereo not drawn) [CITRULLINE] has an LC retention time of 14.5 min.
`O=c1[nH]c(=O)c2ncn(C3OC(CO)C(O)C3O)c2[nH]1` (stereo not drawn) [XANTHOSINE] showed an LC retention time of 10.4 min.
`CNC(CCC(=O)O)C(=O)O` (stereo not drawn) [N-METHYLGLUTAMATE] gave an LC retention time of 13.9 min.
With `CCOC(=O)CCNC(N)=O` [ETHYL 3-UREIDOPROPIONATE] the LC retention time was 2.14 min.
In the case of `O=C(O)c1cccc[n+]1[O-]` [Picolinic acid N-oxide], the LC retention time is reported as 1.9 min.
`CCCCCCCCCCCCCCCC(=O)OCC(O)COP(=O)([O-])OCC[N+](C)(C)C` (stereo not drawn) [16-0_LysoPC] showed an LC retention time of 11.2 min.
With `CC12CCC(=O)C=C1CCC1C2C(O)CC2(C)C(C(=O)CO)CCC12` (stereo not drawn) [CORTICOSTERONE] the LC retention time was 1.74 min.
With `O=C(O)c1ccc(O)cc1O` [2-4-Dihydroxybenzoic acid] the LC retention time was 2.18 min.
In the case of `Nc1ncnc2c1ncn2C1CC(O)C(COP(=O)(O)O)O1` (stereo not drawn) [DEOXYADENOSINE MONOPHOSPHATE], the LC retention time is reported as 13.3 min.
With `NCCC(=O)O` [BETA-ALANINE] the LC retention time was 14.1 min.
With `Nc1ncccc1C(=O)O` [2-Aminopyridine-3-carboxylic acid] the LC retention time was 8.8 min.
Work on `O=C/C=C/c1ccccc1` [Trans-Cinnamaldehyde] yielded an LC retention time of 1.57 min.
`CC(=O)CC(=O)[O-]` [ACETOACETATE] showed an LC retention time of 1.91 min.
In the case of `CC(=O)OC(CC(=O)[O-])C[N+](C)(C)C` (stereo not drawn) [o-acetyl-l-carnitine hydrochloride], the LC retention time is reported as 13 min.
Molecule `CCCCCCCCCCCCCCCCCC(=O)O` [STEARATE] has an LC retention time of 1.56 min.
In the case of `Nc1ccnc(=O)[nH]1` [CYTOSINE], the LC retention time is reported as 12 min.
Work on `NCC(=O)CCC(=O)O` [5-AMINOLEVULINATE] yielded an LC retention time of 13.8 min.
Work on `NCCCNCCCN` [NORSPERMIDINE] yielded an LC retention time of 19.4 min.
`CC=CC=CC(=O)O` [SORBATE] gave an LC retention time of 1.8 min.
In the case of `CC(CCC(=O)O)C1CCC2C3C(=O)CC4CC(O)CCC4(C)C3CC(O)C12C` (stereo not drawn) [5b-cholanic acid-3a-12a-DIOL-7-ONE], the LC retention time is reported as 2.17 min.
For `O=Cc1cccc(O)c1` [3-HYDROXYBENZALDEHYDE], the LC retention time was 1.75 min.
Work on `Cc1cc(=O)oc(C)c1C(=O)O` [Isodehydracetic acid] yielded an LC retention time of 2.33 min.
Molecule `[NH3+]CC(=O)N1CCCC1C(=O)[O-]` (stereo not drawn) [Gly-Pro] has an LC retention time of 15 min.
For `COC(=O)CCCN` [METHYL 4-AMINOBUTYRATE-CH2], the LC retention time was 13.4 min.
`CCCCCCCCCCCCCC=CC(O)C(COP(=O)([O-])OCC[N+](C)(C)C)NC(=O)CCCCCCCCCCCCCCCCC` (stereo not drawn) [SPHINGOMYELIN] showed an LC retention time of 10.8 min.
For `C=C(OP(=O)(O)O)C(=O)[O-]` [PHOSPHOENOLPYRUVATE], the LC retention time was 14.7 min.
`CCCCCCCCCCCCCCCC(=O)OCC(CO)OC(=O)CCCCCCCCCCCCCCC` (stereo not drawn) [DIPALMITOYLGLYCEROL] showed an LC retention time of 1.5 min.
`O=S(=O)(O)c1ccc(O)c(O)c1` [3-4-dihydroxybenzenesulfonic acid] showed an LC retention time of 12.8 min.
In the case of `Cn1cc(C(N)=O)ccc1=O` [N-methyl-2-pyridone-5-carboxamide], the LC retention time is reported as 2.21 min.
With `O=c1[nH]cnc2c1ncn2C1OC(COP(=O)([O-])OP(=O)([O-])O)C(O)C1O` (stereo not drawn) [INOSINE 5'-DIPHOSPHATE] the LC retention time was 15 min.
In the case of `O=C(O)C(COP(=O)(O)O)OP(=O)(O)O` [2-3-DIPHOSPHO-D-GLYCERIC ACID], the LC retention time is reported as 15.7 min.
`CC(CCC(=O)O)C1CCC2C3C(=O)CC4CC(O)CCC4(C)C3CC(=O)C12C` (stereo not drawn) [5b-cholanic acid-3a-OL-7-12-DIONE] gave an LC retention time of 1.92 min.
With `Cn1c[n+](C2OC(CO)C(O)C2O)c2nc(N)[nH]c(=O)c21` (stereo not drawn) [7-Methylguanosine] the LC retention time was 12.9 min.
In the case of `NC(=O)c1ccc[n+](C2OC(COP(=O)(O)OP(=O)(O)OCC3OC(n4cnc5c(=O)[nH]cnc54)C(O)C3O)C(O)C2O)c1` (stereo not drawn) [NICOTINAMIDE HYPOXANTHINE DINUCLEOTIDE], the LC retention time is reported as 14.8 min.
With `NCC(O)CCC(N)C(=O)O` (stereo not drawn) [5-HYDROXYLYSINE] the LC retention time was 16.2 min.
Molecule `Cc1cc2nc3[nH]c(=O)[nH]c(=O)c3nc2cc1C` [LUMICHROME] has an LC retention time of 1.94 min.
`NC1CCSC1=O` (stereo not drawn) [HOMOCYSTEINE THIOLACTONE] gave an LC retention time of 11.8 min.
In the case of `O=C(O)CCCCCCCCCO` [10-HYDROXYDECANOATE], the LC retention time is reported as 1.75 min.
For `C=Cc1c(C)c2cc3[nH]c(cc4nc(cc5nc(cc1[nH]2)C(C)=C5CCC(=O)O)C(CCC(=O)O)=C4C)c(C)c3C=C` [PROTOPORPHYRIN], the LC retention time was 1.81 min.
In the case of `Oc1cc(O)c2c(c1)OC(c1ccc(O)c(O)c1)C(O)C2` (single isomer, unassigned; (+)) [(+)-Catechin hydrate], the LC retention time is reported as 9.95 min.
`CC(CCC(=O)O)C1CCC2C3CCC4CC(=O)CCC4(C)C3CCC12C` (stereo not drawn) [5b-cholanic acid-3-ONE] showed an LC retention time of 1.63 min.
Molecule `NC(=O)c1ccccc1O` [SALICYLAMIDE] has an LC retention time of 1.74 min.
Molecule `O=C(O)c1ccc2ccccc2c1[O-]` [1-HYDROXY-2-NAPHTHOATE] has an LC retention time of 1.77 min.
With `O=c1[nH]c(=O)c2[nH]c(=O)[nH]c2[nH]1` [URATE] the LC retention time was 11.2 min.
`CN(CC(=O)O)C(=N)N` [CREATINE] gave an LC retention time of 13.9 min.
With `O=C(O)C(O)C(O)C(O)C(O)COP(=O)(O)O` (stereo not drawn) [6-PHOSPHOGLUCONATE] the LC retention time was 15.1 min.
Molecule `O=c1ccn(C2CC(O)C(CO)O2)c(=O)[nH]1` (stereo not drawn) [DEOXYURIDINE] has an LC retention time of 2.45 min.
Work on `O=C(O)c1cc(=O)c2cccc(O)c2[nH]1` [XANTHURENATE] yielded an LC retention time of 10.4 min.
`CCCCC(O)C(=O)O` (stereo not drawn) [2-hydroxycaproic acid] gave an LC retention time of 1.87 min.
`CC(=O)NC(CC(N)=O)C(=O)O` (stereo not drawn) [N-ACETYLASPARAGINE] gave an LC retention time of 9.75 min.
Work on `CC(=O)NCCCCN` [N-ACETYLPUTRESCINE] yielded an LC retention time of 12.9 min.
Work on `NCC(O)c1ccc(O)cc1` (stereo not drawn) [P-OCTOPAMINE] yielded an LC retention time of 12.4 min.
`CCCCCCCCCCCCCCCC(O)C(N)CO` (stereo not drawn) [SPHINGANINE] showed an LC retention time of 9.91 min.
Molecule `CC(C)=CC(=O)SCCNC(=O)CCNC(=O)C(O)C(C)(C)COP(=O)(O)OP(=O)(O)OCC1OC(n2cnc3c(N)ncnc32)C(O)C1OP(=O)(O)O` (stereo not drawn) [3-METHYLCROTONYL-COA] has an LC retention time of 13.4 min.
Molecule `Nc1cc([O-])cc(C(=O)O)c1` [3-AMINO-5-HYDROXYBENZOATE] has an LC retention time of 2.16 min.
Molecule `CC(=O)NC(CCC(=O)O)C(=O)O` (stereo not drawn) [N-ACETYLGLUTAMATE] has an LC retention time of 8.36 min.
Work on `OCc1ccccc1O` [2-Hydroxybenzyl alcohol ( Salicyl alcohol- Saligenin)] yielded an LC retention time of 1.95 min.
`O=CC(O)C1OC(=O)C(O)C1O` [D-GLUCURONOLACTONE] gave an LC retention time of 8.75 min.
Molecule `CC(=CCC1=C(C)C(=O)c2ccccc2C1=O)CCCC(C)CCCC(C)CCCC(C)C` (stereo not drawn) [PHYLLOQUINONE] has an LC retention time of 1.49 min.
Work on `C=C1CCC(O)CC1=CC=C1CCCC2(C)C1CCC2C(C)C=CC(C)C(C)C` (stereo not drawn) [VITAMIN D2] yielded an LC retention time of 1.55 min.
For `CC(=O)NC(CO)C(=O)O` (stereo not drawn) [N-ACETYLSERINE], the LC retention time was 8.33 min.
Molecule `Nc1nc2c(ncn2C2OC3COP(=O)(O)OC3C2O)c(=O)[nH]1` (stereo not drawn) [CYCLIC GMP] has an LC retention time of 13.4 min.
Molecule `CC12CCC(=O)C=C1CCC1C2C(O)CC2(C)C1CCC2(O)C(=O)CO` (stereo not drawn) [CORTISOL] has an LC retention time of 1.89 min.
`O=C(O)CCc1ccccc1` [hydrocinnamic acid] gave an LC retention time of 1.69 min.
With `CCCC(=O)[O-]` [BUTANOATE] the LC retention time was 2.15 min.
With `CC(C)(CCC(=O)O)C(=O)O` [2-2-Dimethylglutaric acid] the LC retention time was 2.1 min.
Work on `COC1=C(OC)C(=O)C(CC=C(C)CCC=C(C)C)=C(C)C1=O` [coenzyme Q2] yielded an LC retention time of 1.52 min.
`O=C1OC(C(O)CO)C(O)=C1O` (stereo not drawn) [ASCORBATE] gave an LC retention time of 10.5 min.
With `O=C(O)C(O)C(O)C(O)C(O)CO` (stereo not drawn) [GLUCONATE] the LC retention time was 13.6 min.
`O=C(O)C(O)CO` (stereo not drawn) [GLYCERATE] showed an LC retention time of 8.39 min.
`NC(N)=NC(CC(=O)O)C(=O)O` (stereo not drawn) [GUANIDINOSUCCINATE] showed an LC retention time of 14.4 min.
With `NC(=O)CCCCC1CCSS1` (stereo not drawn) [LIPOAMIDE] the LC retention time was 1.79 min.
For `CCCCCCCCC=CCCCCCCCCCCCCCC(=O)[O-]` [NERVONATE], the LC retention time was 1.52 min.
Molecule `NCCS` [CYSTEAMINE] has an LC retention time of 16.9 min.
`O=C(O)c1cccnc1` [Nicotinic acid] gave an LC retention time of 2.81 min.
With `Cc1c[nH]c(=O)[nH]c1=O` [THYMINE] the LC retention time was 2.14 min.
`CSCC1OC(n2cnc3c(N)ncnc32)C(O)C1O` (stereo not drawn) [METHYLTHIOADENOSINE] gave an LC retention time of 4.75 min.
